This passage reports IC50 results from patent publication US20230026271A1, “Piperazine Compounds for Inhibiting CPS1” (Eisai R&D Management Co., Ltd., priority 2019, published 2023).

This test concerns the target T1, CPS1 (Homo sapiens, UniProt P31327).
T1 construct: The full length, human CPS1 gene was cloned into pFastBac HTA; His6 (from the pFastBac HTA vector); made in house; host or cells: SF21 insect cells (baculovirus, Bac-to-bac)
T1 sequence (P31327 39-1500): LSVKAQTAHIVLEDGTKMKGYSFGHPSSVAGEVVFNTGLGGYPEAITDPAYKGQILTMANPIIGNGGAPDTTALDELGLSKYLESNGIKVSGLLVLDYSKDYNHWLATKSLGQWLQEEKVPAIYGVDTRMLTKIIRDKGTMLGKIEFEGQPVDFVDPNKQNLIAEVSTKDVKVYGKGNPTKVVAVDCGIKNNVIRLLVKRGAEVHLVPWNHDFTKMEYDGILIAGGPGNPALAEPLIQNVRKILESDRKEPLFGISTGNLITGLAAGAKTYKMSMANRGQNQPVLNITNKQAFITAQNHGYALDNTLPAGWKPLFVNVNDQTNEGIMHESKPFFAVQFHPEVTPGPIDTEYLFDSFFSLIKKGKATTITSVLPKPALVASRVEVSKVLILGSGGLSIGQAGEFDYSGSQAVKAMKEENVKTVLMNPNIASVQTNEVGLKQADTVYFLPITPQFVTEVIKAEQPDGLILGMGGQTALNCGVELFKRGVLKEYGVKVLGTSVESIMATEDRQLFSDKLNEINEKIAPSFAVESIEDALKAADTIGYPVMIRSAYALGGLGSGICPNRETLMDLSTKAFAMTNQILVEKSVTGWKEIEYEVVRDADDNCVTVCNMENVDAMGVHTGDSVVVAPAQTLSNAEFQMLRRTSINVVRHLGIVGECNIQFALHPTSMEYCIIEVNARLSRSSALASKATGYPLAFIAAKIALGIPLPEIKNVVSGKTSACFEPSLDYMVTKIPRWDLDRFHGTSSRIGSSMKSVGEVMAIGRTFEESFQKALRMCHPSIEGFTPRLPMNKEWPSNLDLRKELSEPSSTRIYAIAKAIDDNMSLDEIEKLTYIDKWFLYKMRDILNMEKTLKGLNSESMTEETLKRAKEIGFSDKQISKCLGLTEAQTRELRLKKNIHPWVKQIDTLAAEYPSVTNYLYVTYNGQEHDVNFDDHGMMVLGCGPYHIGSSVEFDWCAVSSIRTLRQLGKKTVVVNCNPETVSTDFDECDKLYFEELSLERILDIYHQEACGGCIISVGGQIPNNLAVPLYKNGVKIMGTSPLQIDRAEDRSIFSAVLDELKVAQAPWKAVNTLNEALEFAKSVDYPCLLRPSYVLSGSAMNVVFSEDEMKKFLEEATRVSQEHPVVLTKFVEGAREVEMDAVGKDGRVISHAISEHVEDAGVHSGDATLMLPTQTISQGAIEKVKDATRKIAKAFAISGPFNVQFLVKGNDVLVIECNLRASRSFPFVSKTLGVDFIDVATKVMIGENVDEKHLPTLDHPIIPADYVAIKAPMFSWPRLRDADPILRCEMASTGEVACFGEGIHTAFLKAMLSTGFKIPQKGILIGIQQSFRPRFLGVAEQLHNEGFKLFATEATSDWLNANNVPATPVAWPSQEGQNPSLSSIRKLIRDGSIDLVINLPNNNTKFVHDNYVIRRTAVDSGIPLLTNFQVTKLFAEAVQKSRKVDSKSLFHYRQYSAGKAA
The experiment in a line: ADP-Glo endpoint assay measuring the ATPase activity of CPS1. Format: biochemical. As to conditions: geometric mean of a minimum of two values; 50 nM CPS1, 10 μM ATP, 0.2 mM NAG, 60 min at room temperature; read-out: ADPGlo IC50. The method in brief:
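Full-length human His-tagged CPS1 from SF21 insect cells, 50 nM, preincubated 20 min with compound in pH 7.0 HEPES buffer containing KHCO3, (NH4)2SO3, MgCl2 and 0.2 mM NAG. Reaction started with 10 μM ATP, 60 min at room temperature; ADP formed detected by ADP-Glo luminescence.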
Background: ADP-Glo first removes unused ATP, then detects ADP through luciferase.
What is called IC50 is the midpoint of a concentration-inhibition curve. As for `COc1ccc(C(=O)N2CCN(C(=O)c3ccc(OC)cc3F)C(C)C2C)c(F)c1` (stereo not shown) [Compound 86, (2,3-dimethylpiperazine-1,4-diyl)bis((2-fluoro-4-methoxyphenyl)methanone)], the IC50 came to 36.1 µM. The figure for `COc1ccc(C(=O)N2[C@H](C)CN(C(=O)c3c[nH]c4ccc(F)cc34)C[C@H]2C)c(F)c1` [Compound 87, (5-fluoro-1H-indol-3-yl)((3R,5R)-4-(2-fluoro-4-methoxybenzoyl)-3,5-dimethylpiperazin-1-yl)methanone] is 37.7 µM. On to `COc1ccc(C(=O)N2[C@H](C)CN(C(=O)Cc3n[nH]c4ccccc34)C[C@H]2C)c(F)c1` [Compound 88, 1-((3R,5R)-4-(2-fluoro-4-methoxybenzoyl)-3,5-dimethylpiperazin-1-yl)-2-(1H-indazol-3-yl)ethanone], for which the IC50 is 38.2 µM. Consider `COc1ccc(C(=O)N2[C@H](C)CN(C(=O)Cc3c[nH]c4cccnc34)C[C@H]2C)c(F)c1` [Compound 89, 1-((3R,5R)-4-(2-fluoro-4-methoxybenzoyl)-3,5-dimethylpiperazin-1-yl)-2-(1H-pyrrolo[3,2-b]pyridin-3-yl)ethanone], for which the IC50 is 42.7 µM.

For `COc1ccc(C(=O)N2C[C@@H](C)N(C(=O)c3ccc(-c4nnn[nH]4)cc3)[C@H](C)C2)c(F)c1` [Compound 90, ((3R,5R)-4-(4-(1H-tetrazol-5-yl)benzoyl)-3,5-dimethylpiperazin-1-yl)(2-fluoro-4-methoxyphenyl)methanone], the IC50 amounted to 45 µM.

`COc1ccc(OC)c2[nH]c(C(=O)N3C[C@@H](C)N(C(=O)Cc4cc5ccccc5[nH]4)[C@H](C)C3)cc12` [Compound 91, 1-((2R,6R)-4-(4,7-dimethoxy-1H-indole-2-carbonyl)-2,6-dimethylpiperazin-1-yl)-2-(1H-indol-2-yl)ethanone]: the IC50 is > 66.7 µM. As to `COc1ccc(C(=O)N2[C@H](C)CN(C(=O)c3cccc(OC)c3F)C[C@H]2C)c(F)c1` [Compound 92, ((2R,6R)-4-(2-fluoro-3-methoxybenzoyl)-2,6-dimethylpiperazin-1-yl)(2-fluoro-4-methoxyphenyl)methanone], the IC50 is > 66.7 µM. As for `COc1ccc(C(=O)N2C[C@@H](C)N(C(=O)c3ccc(NC(C)=O)cc3F)[C@H](C)C2)c(F)c1` [Compound 93, N-(3-fluoro-4-((2R,6R)-4-(2-fluoro-4-methoxybenzoyl)-2,6-dimethylpiperazine-1-carbonyl)phenyl)acetamide], the IC50 is > 66.7 µM. The figure for `COc1ccc(C(=O)N2C[C@@H](C)N(C(=O)c3ccc(OC)cc3Cl)[C@H](C)C2)c(F)c1` [Compound 94, ((3R,5R)-4-(2-chloro-4-methoxybenzoyl)-3,5-dimethylpiperazin-1-yl)(2-fluoro-4-methoxyphenyl)methanone] is > 66.7 µM; for `COc1ccc(C(=O)N2C[C@@H](C)N(C(=O)c3c(F)cc(OC)cc3F)[C@H](C)C2)c(F)c1` [Compound 95, ((3R,5R)-4-(2,6-difluoro-4-methoxybenzoyl)-3,5-dimethylpiperazin-1-yl)(2-fluoro-4-methoxyphenyl)methanone] it is > 66.7 µM; for `COc1ccc(C(=O)N2[C@H](C)CN(C(=O)c3cc(OC)ccc3F)C[C@H]2C)c(F)c1` [Compound 96, ((3R,5R)-4-(2-fluoro-4-methoxybenzoyl)-3,5-dimethylpiperazin-1-yl)(2-fluoro-5-methoxyphenyl)methanone] it is > 66.7 µM. The same measure for `COc1ccc(C(=O)N2[C@@H](C)CN(C(=O)c3cc(OC)ccc3F)C[C@@H]2C)c(F)c1` [Compound 97, ((3S,5S)-4-(2-fluoro-4-methoxybenzoyl)-3,5-dimethylpiperazin-1-yl)(2-fluoro-5-methoxyphenyl)methanone]: > 66.7 µM; for `COc1ccc(C(=O)N2[C@H](C)CN(C(=O)c3c[nH]c4ccc(O)cc34)C[C@H]2C)c(F)c1` [Compound 98, ((3R,5R)-4-(2-fluoro-4-methoxybenzoyl)-3,5-dimethylpiperazin-1-yl)(5-hydroxy-1H-indol-3-yl)methanone]: > 66.7 µM; for `COc1ccc(C(=O)N2C[C@@H](C)N(C(=O)c3ccc4ccn(C)c4c3)[C@H](C)C2)c(F)c1` [Compound 99, ((3R,5R)-3,5-dimethyl-4-(1-methyl-1H-indole-6-carbonyl)piperazin-1-yl)(2-fluoro-4-methoxyphenyl)methanone]: > 66.7 µM. The same measure for `COc1ccc(C(=O)N2[C@H](C)CN(C(=O)c3ccc(OC)cc3OC)C[C@H]2C)c(F)c1` [Compound 100, ((2R,6R)-4-(2,4-dimethoxybenzoyl)-2,6-dimethylpiperazin-1-yl)(2-fluoro-4-methoxyphenyl)methanone]: > 66.7 µM; for `COc1ccc(C(=O)N2[C@H](C)CN(C(=O)c3cc(OC)c(OC)cc3F)C[C@H]2C)c(F)c1` [Compound 101, ((2R,6R)-4-(2-fluoro-4,5-dimethoxybenzoyl)-2,6-dimethylpiperazin-1-yl)(2-fluoro-4-methoxyphenyl)methanone]: > 66.7 µM; for `COc1ccc(C(=O)N2[C@H](C)CN(C(=O)c3ccc(S(C)(=O)=O)cc3F)C[C@H]2C)c(F)c1` [Compound 102, ((2R,6R)-4-(2-fluoro-4-(methylsulfonyl)benzoyl)-2,6-dimethylpiperazin-1-yl)(2-fluoro-4-methoxyphenyl)methanone]: > 66.7 µM.

As for `COc1ccc(C(=O)N2[C@H](C)CN(C(=O)c3cc(NC(C)=O)ccc3F)C[C@H]2C)c(F)c1` [Compound 103, N-(4-fluoro-3-((3R,5R)-4-(2-fluoro-4-methoxybenzoyl)-3,5-dimethylpiperazine-1-carbonyl)phenyl)acetamide], the IC50 is > 66.7 µM. For `COc1ccc(C(=O)N2C[C@@H](C)N(C(=O)c3c[nH]c4ccc(O)cc34)[C@H](C)C2)c(F)c1` [Compound 104, ((2R,6R)-4-(2-fluoro-4-methoxybenzoyl)-2,6-dimethylpiperazin-1-yl)(5-hydroxy-1H-indol-3-yl)methanone], the IC50 was > 66.7 µM. For `COc1ccc(C(=O)N2C[C@@H](C)N(C(=O)c3ccc(OC)cc3)[C@H](C)C2)cc1` [Compound 105, ((2R,6R)-2,6-dimethylpiperazine-1,4-diyl)bis((4-methoxyphenyl)methanone)], the 50% inhibitory concentration (IC50) stood at 3.19 µM. With `COc1ccc(C(=O)N2C[C@@H](C)N(C(=O)/C=C/c3ccc(O)cc3)[C@H](C)C2)c(F)c1` [Compound 106, (E)-1-((2R,6R)-4-(2-fluoro-4-methoxybenzoyl)-2,6-dimethylpiperazin-1-yl)-3-(4-hydroxypheny)prop-2-en-1-one], the IC50 came to 4.22 µM. The figure for `COc1ccc(C(=O)N2[C@H](C)CN(C(=O)c3cnc(N)s3)C[C@H]2C)c(F)c1` [Compound 107, (2-aminothiazol-5-yl)((3R,5R)-4-(2-fluoro-4-methoxybenzoyl)-3,5-dimethylpiperazin-1-yl)methanone] is 6.44 µM.
